According to patent US8796298B2, “Combination of a B-Raf inhibitor: N-{3-[5-(2-Amino-4-pyrimidinyl)-2-(1,1- dimethylethyl)-1,3-thiazol-4-yl]-2-fluorophenyl}-2,6-difluorobenzenesulfonamide and the Akt inhibitor: N-{ (1S)-2-amino-1-[(3- fluorophenyl)methyl]ethyl}-5-chIoro-4-(4-chIoro- 1 -methyl- 1 H-pyrazol-5-yl)-2-10 …” (GlaxoSmithKline LLC, priority 2009, dated 2014):
Where two headings read alike, the source gives them in different places.

Key:
[1] = test system: RKO colon line; assay: Cell growth inhibition assay (Cell Titer Glo), RKO; assay type: cell-based; conditions: Homo sapiens
Experimental: (§1) Human colon tumor lines, Colo205, DLD1, HCC2998, HCT15, HCT8, HT29, KM-12, LS1034, LS174T, RKO, SW1463, SW480, SW837 and T84, and human breast tumor cell lines EFM19 and MDA-MB-175VII were cultured in RPMI 1640 medium containing 10% fetal bovine serum (FBS).
(§2) All cells were cultured for a minimum of 72 hours prior to cell plating. Cells were assayed in a 96-well tissue culture plate (NUNC 136102) of RPMI medium containing 10% FBS for all cells at 1,000 cells per well. Approximately 24 hours after plating, cells were exposed to ten, three-fold serial dilutions of compound or the combination of the two agents at a constant molar to molar ratio of 1:10 Compound A to Compound B in RPMI media containing 10% FBS. Cells were incubated in the presence of compounds for 3 days. ATP levels were determined by adding Cell Titer Glo® (Promega) according to the manufacturer's protocol. Briefly, Cell Titer Glo® was added each plate, incubated for 30 minutes then luminescent signal was read on the SpectraMax L plate reader with a 0.5 sec integration time.
(§3) Inhibition of cell growth was estimated after treatment with compound or combination of compounds for three days and comparing the signal to cells treated with vehicle (DMSO). Cell growth was calculated relative to vehicle (DMSO) treated control wells.
In general, a CI value <0.9, between 0.9 and 1.1, or >1.1 indicates synergy, additivity and antagonism, respectively. In general, the smaller the CI number, the greater is the strength of synergy.
(§4) The combination effects on the response scale were quantified by Excess Over Highest Single Agent (EOHSA) based on the concept of nonlinear blending as described in detail by Peterson and Novick (2007) and Peterson (2010) [(2;3) [Peterson and Novick, 2007; Peterson, 2010]. EOHSA values are defined as increases in improvement (here, in ‘percentage points’ (ppts) difference) produced by the combination over the best single agent at its component dose level for the combination. For single agent and combination treatments, cells were exposed to compounds at a fixed-dose-ratio, and dose response curves were fit to the experimental data and analyzed using regression models. At specified total dose levels of IC50 along the dose response curve, the dose combination (corresponding to IC50) was determined for making EOHSA statistical inferences.

[2] = test system: HT29; assay: Cell growth inhibition assay (Cell Titer Glo), HT29; assay type: cell-based, Human
Experimental: as §1
(§5) All cells were cultured for a minimum of 72 hours prior to cell plating. Cells were assayed in a 96-well tissue culture plate (NUNC 136102) of RPMI medium containing 10% FBS for all cells at 1,000 cells per well. […] ATP levels were determined by adding Cell Titer Glo® (Promega) according to the manufacturer's protocol. Briefly, Cell Titer Glo® was added each plate, incubated for 30 minutes then luminescent signal was read on the SpectraMax L plate reader with a 0.5 sec integration time.
(§6) Inhibition of cell growth was estimated after treatment with compound or combination of compounds for three days and comparing the signal to cells treated with vehicle (DMSO). Cell growth was calculated relative to vehicle (DMSO) treated control wells. […]
(§7) The combination effects on the response scale were quantified by Excess Over Highest Single Agent (EOHSA) based on the concept of nonlinear blending as described in detail by Peterson and Novick (2007) and Peterson (2010) [(2;3) [Peterson and Novick, 2007; Peterson, 2010]. […]

[3] = test system: Colo205; assay: Cell growth inhibition assay (Cell Titer Glo), Colo205; assay type: cell-based, Human; conditions: for IC50: Homo sapiens, COLO 205, 72 h, Colo205 colon, BRAF V600E, KRAS WT, PIK3CA WT, 3 days, mean ± std, read-out: IC50 values, Single Agent
Experimental: as §1, §2, §3
(§8) In general, a CI value <0.9, between 0.9 and 1.1, or >1.1 indicates synergy, additivity and antagonism, respectively. […]
as §4, with “EOHSA values are defined as increases in improvement (here, in ‘percentage points’ (ppts) difference) produced by the combination over the best single agent at its component dose level for the combination.” left out

[4] = test system: DLD1; assay: Cell growth inhibition assay (Cell Titer Glo), DLD1; assay type: cell-based; conditions: Homo sapiens, DLD-1, 72 h; DLD1 colon; BRAF WT, KRAS G13D, PIK3CA E545K, D549N; 3 days; read-out: IC50 values, Single Agent
Experimental: as §1, §5, §6, §7

[5] = test system: HCC2998; assay: Cell growth inhibition assay (Cell Titer Glo), HCC2998; assay type: cell-based; conditions: Homo sapiens, HCC 2998, 72 h; HCC2998 colon; BRAF WT, KRAS A146T, PIK3CA WT; 3 days; read-out: IC50 values, Single Agent
Experimental: as §1, §5, §6, §7

[6] = test system: HCT15; assay: Cell growth inhibition assay (Cell Titer Glo), HCT15; assay type: cell-based; conditions: Homo sapiens, HCT-15, 72 h; HCT15 colon; BRAF WT, KRAS G13D, PIK3CA D549N, E545K; 3 days; mean ± std; read-out: IC50 values, Single Agent
Experimental: as §1, §5, §6, §7

[7] = test system: HCT8; assay: Cell growth inhibition assay (Cell Titer Glo), HCT8; assay type: cell-based; conditions: Homo sapiens, HCT-8, 72 h; HCT8 colon; BRAF WT, KRAS G13D, PIK3CA E545K; 3 days; mean ± std; read-out: IC50 values, Single Agent
Experimental: as §1, §5, §6, §7

[8] = test system: KM-12; assay: Cell growth inhibition assay (Cell Titer Glo), KM-12; assay type: cell-based; conditions: Homo sapiens, KM12, 72 h; KM-12 colon; BRAF WT, KRAS WT, PIK3CA WT; 3 days; mean ± std; read-out: IC50 values, Single Agent
Experimental: as §1, §5, §6, §7

[9] = test system: LS1034; assay: Cell growth inhibition assay (Cell Titer Glo), LS1034; assay type: cell-based; conditions: Homo sapiens, LS-1034, 72 h; LS1034 colon; BRAF WT, KRAS A146T, PIK3CA WT; 3 days; read-out: IC50 values, Single Agent
Experimental: as §1, §5, §6, §7

[10] = test system: SW480; assay: Cell growth inhibition assay (Cell Titer Glo), SW480; assay type: cell-based; conditions: Homo sapiens, 72 h; SW480 colon; BRAF WT, KRAS G12C, PIK3CA WT; 3 days; mean ± std; read-out: IC50 values, Single Agent
Experimental: as §1, §5, §6, §7

[11] = test system: SW1463; assay: Cell growth inhibition assay (Cell Titer Glo), SW1463; assay type: cell-based; conditions: Homo sapiens, 72 h; SW1463 colon; BRAF WT, KRAS G12C, PIK3CA WT; 3 days; read-out: IC50 values, Single Agent
Experimental: as §1, §5, §6, §7

[12] = test system: SW837; assay: Cell growth inhibition assay (Cell Titer Glo), SW837; assay type: cell-based; conditions: Homo sapiens, 72 h; SW837 colon; BRAF WT, KRAS G12C, PIK3CA WT; 3 days; read-out: IC50 values, Single Agent
Experimental: as §1, §5, §6, §7

[13] = test system: T84; assay: Cell growth inhibition assay (Cell Titer Glo), T84; assay type: cell-based; conditions: Homo sapiens, 72 h; T84 colon; BRAF WT, KRAS G13D, PIK3CA E542K; 3 days; read-out: IC50 values, Single Agent
Experimental: as §1, §5, §6, §7

[14] = test system: EFM19; assay: Cell growth inhibition assay (Cell Titer Glo), EFM19; assay type: cell-based; conditions: Homo sapiens, EFM-19, 72 h; EFM19 breast; BRAF WT, KRAS WT, PIK3CA WT; 3 days; mean ± std; read-out: IC50 values, Single Agent
Experimental: as §1, §5, §6, §7

[15] = test system: MDA-MB-175VII; assay: Cell growth inhibition assay (Cell Titer Glo), MDA-MB-175VII; assay type: cell-based; conditions: Homo sapiens, 72 h; MDA-MB-175VII breast; BRAF WT, KRAS WT, PIK3CA H1049L; 3 days; mean ± std; read-out: IC50 values, Single Agent
Experimental: as §1, §5, §6, §7

[16] = test system: 10 colon lines without BRAF V600E mutation; assay: Cell growth inhibition assay (Cell Titer Glo), colon lines without BRAF V600E mutation; assay type: cell-based; conditions: Homo sapiens; the other 10 colon lines without BRAF V600E mutation (KRAS wild type or mutated); read-out: IC50s, compound alone
Experimental: All cells were cultured for a minimum of 72 hours prior to cell plating. […] Cells were incubated in the presence of compounds for 3 days. ATP levels were determined by adding Cell Titer Glo® (Promega) according to the manufacturer's protocol. Briefly, Cell Titer Glo® was added each plate, incubated for 30 minutes then luminescent signal was read on the SpectraMax L plate reader with a 0.5 sec integration time.
as §3, §8
as §4, with “EOHSA” for “The combination effects on the response scale were quantified by Excess Over Highest Single Agent (EOHSA) based on the concept of nonlinear blending as described in detail by Peterson and Novick (2007) and Peterson (2010) [(2;3) [Peterson and Novick, 2007; Peterson, 2010]. EOHSA”

[17] = 72 h, RKO colon, BRAF V600E, KRAS WT, PIK3CA H1047R, 3 days, mean ± std, read-out: IC50 values, Single Agent
[18] = RKO colon line, BRAF V600E and PIK3CA H1047R, single agent, read-out: IC50, compound alone

Row | IC50 ([2]; Homo sapiens, HT-29, 72 h, HT29 colon, BRAF V600E, KRAS WT, PIK3CA P449T, 3 days, mean ± std, read-out: IC50 values, Single Agent) [µM] | Structure (SMILES) | IC50 [1, 17] [µM] | IC50 [1, 18] [µM] | IC50 [3] [µM] | IC50 [4] [µM] | IC50 [5] [µM] | IC50 [6] [µM] | IC50 [7] [µM] | IC50 [8] [µM] | IC50 [9] [µM] | IC50 [10] [µM] | IC50 [11] [µM] | IC50 [12] [µM] | IC50 [13] [µM] | IC50 [14] [µM] | IC50 [15] [µM] | sensitivity to compound alone in words ([2]; HT29, BRAF V600E mutation line) | sensitivity to compound alone in words ([3]; Colo205, BRAF V600E mutation line) | IC50 [16] [µM]
1 | 1.43 ± 0.073 | Cn1ncc(Cl)c1-c1cc(C(=O)N[C@H](CN)Cc2cccc(F)c2)sc1Cl [Compound B, N-{(1S)-2-amino-1-[(3-fluorophenyl)methyl]ethyl}-5-chloro-4-(4-chloro-1-methyl-1H-pyrazol-5-yl)-2-thiophenecarboxamide] | 1.35 ± 0.614 | > 1 | 3.29 ± 0.242 | > 10 | > 10 | 7.77 ± 1.69 | 1.55 ± 0.051 | 4.45 ± 4.2 | > 10 | 6.08 ± 0.154 | > 10 | > 10 | > 10 | 0.444 ± 0.285 | 0.844 ± 0.033 |  |  | 
2 |  | CC(C)(C)c1nc(-c2cccc(NS(=O)(=O)c3c(F)cccc3F)c2F)c(-c2ccnc(N)n2)s1 [Compound A, N-{3-[5-(2-Amino-4-pyrimidinyl)-2-(1,1-dimethylethyl)-1,3-thiazol-4-yl]-2-fluorophenyl}-2,6-difluorobenzenesulfonamide] | 4.2 ± 4.03 | > 1 | 0.013 ± 0.004 | > 10 | > 10 | > 10 | > 10 | > 10 | > 10 | > 10 | > 10 | > 10 | > 10 | > 10 | > 10 | highly sensitive | highly sensitive | > 10
